Experimental data as given in patent US12077503B2, “Substituted cyclic amides and their use as herbicides” (FMC CORPORATION, priority 2015, dated 2024).

Tests used:
Format in all cases: in vivo
Kochia (Kochia scoparia) [1] = test: Test A postemergence; settings: Bassia scoparia, post-emergence, 240 h, postemergence, read-out: Kochia plant response rating
Method in brief: (§1)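 Compounds were formulated in a non-phytotoxic solvent mixture with surfactant and applied as a preemergence directed soil spray after seeding, or sprayed postemergence over plants 2 to 10 cm tall at the one- to two-leaf stage. Evaluation after about 10 d compared treated with untreated controls, using a scale from 0 (no effect) to 100 (complete control).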

[2] = system: blackgrass (Alopecurus myosuroides); test: Test A postemergence; settings: Alopecurus myosuroides, post-emergence, 240 h, postemergence, read-out: Blackgrass plant response rating
Method in brief: as §1

[3] = system: pigweed (Amaranthus retroflexus); test: Test A postemergence; settings: Amaranthus retroflexus, post-emergence, 240 h, postemergence, read-out: Pigweed plant response rating
Method in brief: as §1

[4] = system: wheat (Triticum aestivum); test: Test A postemergence; settings: Triticum aestivum, post-emergence, 240 h, postemergence, read-out: Wheat plant response rating
Method in brief: as §1

[5] = system: ragweed (common ragweed, Ambrosia elatior); test: Test A postemergence; settings: Ambrosia artemisiifolia, post-emergence, 240 h, postemergence, read-out: Ragweed plant response rating
Method in brief: as §1

[6] = system: ryegrass, Italian (Italian ryegrass, Lolium multiflorum); test: Test A postemergence; settings: Lolium multiflorum, post-emergence, 240 h, postemergence, read-out: Ryegrass, Italian plant response rating
Method in brief: as §1

corn (Zea mays) = test: Test A postemergence; settings: Zea mays, post-emergence, 240 h, postemergence, read-out: Corn plant response rating
Method in brief: as §1

[7] = system: Galium (catchweed bedstraw, Galium aparine); test: Test A postemergence; settings: Galium, post-emergence, 240 h, postemergence, read-out: Galium plant response rating
Method in brief: as §1

[8] = system: giant foxtail (Setaria faberii); test: Test A postemergence; settings: Setaria faberi, post-emergence, 240 h, postemergence, read-out: Foxtail, Giant plant response rating
Method in brief: as §1

[9] = system: barnyardgrass (Echinochloa crus-galli); test: Test A postemergence; settings: Echinochloa crus-galli, post-emergence, 240 h, postemergence, read-out: Barnyardgrass plant response rating
Method in brief: as §1

Kochia (Kochia scoparia) [10] = test: Test A preemergence; settings: Bassia scoparia, pre-emergence, 240 h, preemergence, 0 to 100 scale where 0 is no effect and 100 is complete control, read-out: Kochia plant response rating
Method in brief: as §1

[11] = system: pigweed (Amaranthus retroflexus); test: Test A preemergence; settings: Amaranthus retroflexus, pre-emergence, 240 h, preemergence, 0 to 100 scale where 0 is no effect and 100 is complete control, read-out: Pigweed plant response rating
[12] = system: ragweed (common ragweed, Ambrosia elatior); test: Test A preemergence; settings: Ambrosia artemisiifolia, pre-emergence, 240 h, preemergence, 0 to 100 scale where 0 is no effect and 100 is complete control, read-out: Ragweed plant response rating
Method in brief: as §1

[13] = system: ryegrass, Italian (Italian ryegrass, Lolium multiflorum); test: Test A preemergence; settings: Lolium multiflorum, pre-emergence, 240 h, preemergence, 0 to 100 scale where 0 is no effect and 100 is complete control, read-out: Ryegrass, Italian plant response rating
Method in brief: as §1

[14] = system: barnyardgrass (Echinochloa crus-galli); test: Test A preemergence; settings: Echinochloa crus-galli, pre-emergence, 240 h, preemergence, 0 to 100 scale where 0 is no effect and 100 is complete control, read-out: Barnyardgrass plant response rating
Method in brief: as §1

[15] = 125 g ai/ha, visual injury on 0 to 100 scale (0 no effect, 100 complete control), approx. 10 d
[16] = 500 g ai/ha, 0 to 100 scale, 0 is no effect, 100 is complete control

## O=C1NC[C@H](c2ccc(F)c(OC(F)(F)C(F)F)c2)[C@H]1C(=O)Nc1cccc(F)c1F [Compound 1131]
Kochia (Kochia scoparia) [1]; [15]
  pest or weed control at 125 g/ha: 60%
Kochia (Kochia scoparia) [1]; [16]
  pest or weed control at 500 g/ha: 70%
[2]; [15]
  pest or weed control at 125 g/ha: 40%
[2]; [16]
  pest or weed control at 500 g/ha: 60%
[3]; [15]
  pest or weed control at 125 g/ha: 50%
[3]; [16]
  pest or weed control at 500 g/ha: 80%
[4]; [15]
  plant injury at 125 g/ha: 50%
[4]; [16]
  plant injury at 500 g/ha: 70%
[5]; [15]
  pest or weed control at 125 g/ha: 50%
[5]; [16]
  pest or weed control at 500 g/ha: 80%
[6]; [15]
  pest or weed control at 125 g/ha: 0%
[6]; [16]
  pest or weed control at 500 g/ha: 50%
Corn (Zea mays); [15]
  plant injury at 125 g/ha: 70%
Corn (Zea mays); [16]
  plant injury at 500 g/ha: 80%
[7]; [15]
  pest or weed control at 125 g/ha: 60%
[7]; [16]
  pest or weed control at 500 g/ha: 60%
[8]; [15]
  pest or weed control at 125 g/ha: 80%
[8]; [16]
  pest or weed control at 500 g/ha: 90%
[9]; [15]
  pest or weed control at 125 g/ha: 70%
[9]; [16]
  pest or weed control at 500 g/ha: 90%
Kochia (Kochia scoparia) [10]; 125 g ai/ha, approx. 10 d
  pest or weed control at 125 g/ha: 100%
Kochia (Kochia scoparia) [10]; 500 g ai/ha
  pest or weed control at 500 g/ha: 90%
[11]; 125 g ai/ha, approx. 10 d
  pest or weed control at 125 g/ha: 80%
[11]; 500 g ai/ha
  pest or weed control at 500 g/ha: 90%
[12]; 125 g ai/ha, approx. 10 d
  pest or weed control at 125 g/ha: 60%
[12]; 500 g ai/ha
  pest or weed control at 500 g/ha: 80%
[13]; 125 g ai/ha, approx. 10 d
  pest or weed control at 125 g/ha: 0%
[13]; 500 g ai/ha
  pest or weed control at 500 g/ha: 70%
[14]; 125 g ai/ha, approx. 10 d
  pest or weed control at 125 g/ha: 90%
[14]; 500 g ai/ha
  pest or weed control at 500 g/ha: 90%
